Experimental data: patent US11485714B2, “Hydroxyethylamine-based piperazine compounds, and methods of producing and using the same for treating disease” (National Institute of Immunology, priority 2020, dated 2022)
Like-named read-outs stand apart in the source and are kept apart here.

What was measured:
[1] = test system: P. falciparum CQ-sensitive (Pf3D7); assay: SYBR Green I assay, asynchronous cultures, CQ-sensitive clone; format: cell-based; details: Plasmodium falciparum
Experimental: Initially, antimalarial activity of Compound I was assessed on asynchronous cultures of P. falciparum sensitive (Pf3D7) clone using the SYBR Green assay. […] DMSO was used as a vehicle control, CQ (Chloroquine), DOX (Doxycycline) and DHA (Dihydroartemisinin).

[2] = In vivo acute toxicity study and pathological examination; parameters: species or system BALB/C mice
From the text: Again mice were randomly divided in two groups. Each group consisted of 3 mice.
Mice were divided into two groups of three mice. […] Again Mice were randomly divided in two groups. Each group consisted of 3 mice. […] Serum was taken for biochemistry studies.

[3] = test system: Field isolates from Kenya (P. falciparum infected blood); assay: Screening against freshly collected field isolates; format: cell-based; details: Plasmodium falciparum
[4] = In vitro cytotoxicity, Huh 7.1 (Alamar Blue); format: cell-based; details: human, Huh 7.1 cells; read-out: CC50 (50% cell toxicity)
Experimental: In addition, the cell viability of Huh 7 and HEK293 cells was evaluated post drug exposure using the Alamar Blue assay [Riss, Terry L., et al. “Cell viability assays.” Assay Guidance Manual [Intenet]. Eli Lilly & Company and the National Centre for Advancing Translational Sciences, 2016]. Cells ([…]) were exposed to varying concentrations of test compounds, for 24 hours in 96-well plate format along with 10/100 μL Alamar Blue solution (10×=4.8 mM in phosphate buffer) per well. […] Results from the cytotoxicity assays were expressed as CC50 at which 50% of the cells died/metabolically slowed down due to drug exposure compared to the non-treated and vehicular control.
(§1) The cytotoxicity of Compound I was tested by exposing peripheral blood mononuclear cells (PBMCs) to drug concentrations corresponding to averages of both Pf3D7 and PfDd2 IC50 values. This was intended to establish whether the observed antiparasitic effects of the compounds were due to non-specific inhibitory activity. […] The IC50 required for killing the parasite is <90 nM. Therefore, in order to be toxic for human cells we have to use over 650 fold concentration.

[5] = In vitro cytotoxicity, PBMC (MTT, Cell Titer Glo); format: cell-based, human; details: human; PBMCs; read-out: CC50 (50% cell toxicity)
Experimental: (§2) [6] PBMC were isolated from healthy donors using the Ficoll-Paque™ technique (GE Healthcare Bioscience AB, Uppsala, Sweden) from donor leukopack samples obtained from LUMC blood bank services. […] Robust cells at a concentration of 80,000 cells/ml were plated into 96-well plates and incubated for 24 hours. Cell viability and proliferation was determined by use of both MTT and Cell Titer Glo@ assays for both cell types. MTT assay was conducted by addition of 10 μL MTT solution (5 mg/mL) into each well, incubated for 4 hour at 37° C. followed by addition of 50 μL DMSO to dissolve the formazan precipitate according to the manufacturer's protocol. Aliquots were drawn from each well and color intensity was measured spectrophotometrically in SpectraMax® M5 Multi-Mode Microplate Reader.
as §1

[6] = test system: peripheral blood mononuclear cells (PBMCs); assay: In vitro cytotoxicity, PBMC (MTT, Cell Titer Glo); format: cell-based, human
Experimental: as §2, §1

parasitized RBC = assay: Calcium levels in parasitized RBC; format: cell-based; details: 10 μM, within a few seconds, preliminary
Experimental: No difference in the activity of the Calcium T Channel was observed under control conditions and with increasing concentrations of the Calxinin molecule, there is no difference in the amplitude of the calcium channel currents, nor in the dependence with the membrane potential of calcium channel activation up to 1 microMolar, that is […] higher than the IC50 to kill the parasite. Human T-type calcium channel currents were measured with the Patch clamp on the “whole cell” configuration in HEK cells constitutively expressing human T type Calcium channel. […] As shown, in FIG. 9 no difference in the amplitude of the calcium channel currents, nor in the dependence with the membrane potential of calcium channel activation even at 11 times the IC50 concentration. Preliminary results of parasitized RBC treated with CQ (I0 μM)+DMSO (negative control) and treated Compound I (10 μM, data not shown) were generated.

[7] = test system: human T-type calcium channel; assay: Whole cell patch clamp in HEK 293 cells; format: cell-based; details: increasing concentrations up to 1 microMolar
Experimental: These currents were measured with the Patch clamp method in the “whole cell” configuration. In this configuration, the total currents that pass through all the calcium channels present in the plasma membrane are measured. In this case, it is measured in HEK cells, which constitutively express the human T type Calcium channel. In this case, the internal solutions contain the Cs+ instead of K+, thus blocking the K+ channels and the external one contains TEA an external channel blocker of K. This way the only currents that can develop in these cells are that of T type Calcium channels. This calcium channel is a voltage dependent channel, which is characterized by activating at membrane potentials that are more negative than L-type channels and by rapidly inactivating. […] This is the characteristic of the human T type calcium channel.

[8] = test system: P. falciparum CQ-resistant (PfDd2); assay: SYBR Green I assay, asynchronous cultures, CQ-resistant clone; format: cell-based; details: Plasmodium falciparum
[9] = test system: P. falciparum, strain IPC 3445; assay: Growth inhibition of ART resistant field strain; format: cell-based; details: Plasmodium falciparum, 72 h, read-out: IC50, ART resistant strain IPC 3445
Experimental: Plasmodium falciparum (P. falciparum), strain IPC 3445 was isolated in 2010 from the blood of a human patient with malaria in Pailin province, western Cambodia. Parasites were grown in the lab and tested with different concentrations of the Calxinin and DHA (100 μM-90 nM) for 72 hr incubations.

NC(Cc1ccccc1)C(O)CN1CCN(Cc2ccc(C(F)(F)F)cc2)CC1 (centres unmarked) [Compound I]
IC50 ([1]; 3D7, read-out: IC50 against asexual stages, drug sensitive (CQ-sensitive) 3D7, text): 88 nM
IC50 ([1]; 72 h, read-out: Pf3D7 IC50, nM (±SD), asynchronous cultures, 37° C., 72 hours, SYBR Green I): 90 nM
IC50 ([1]; strain not specified, read-out: IC50 required for killing the parasite): < 90 nM
pathological examination of liver, kidney, stomach ([2]; 300 mg/kg oral for four consecutive days): does not indicate an increase or decrease of Kuepfer cells in the liver, loss of structural integrity in the kidney or lining of stomach
toxicity overall ([2]; 1200 mg/kg (300 mg/kg for four consecutive days)): no indication of toxicity
behavior ([2]; oral): no behavior changes were observed
body weight ([2]; oral): remained constant
motor and feeding activities ([2]; oral): normal
IC50 ([3]; read-out: Field isolates from Kenya IC50, nM (±SD)): 50 nM
IC50 ([3]; read-out: IC50 against freshly collected field isolates of P. falciparum infected blood): 643 nM
CC50 at 24 h [4]: 100 µM
CC50 at 24 h [5]: 1000 µM
% PBMC viability relative to vehicle control ([6]; 24 hours): > 100%
proliferation of the PBMCs (PBMC) ([6]; concentration = average of Pf3D7 and PfDd2 IC50, Cell Titer-GLO): 110.12
calcium levels of packed red blood cells (pRBCs) (parasitized RBC): changes in the calcium levels
activity of the Calcium T Channel (current amplitude, voltage dependence of activation) [7]: No difference
IC50 ([8]; 72 h, read-out: PfDd2 IC50, nM (±SD)): 88 nM
IC50 ([8]; DD2, read-out: IC50 against asexual stages, drug resistant (CQ-resistant) DD2): 88 nM
IC50 ([8]; read-out: mean half maximal inhibitory concentration (IC50) for PfDd2): 88 nM
IC50 [9]: 0.0926 µM
